According to patent US6506756B2, “Substituted imidazoles as dual histamine H1 and H3 agonists or antagonists” (Schering Corporation, priority 2000, dated 2003):
Structures can show the parent of a compound that is named as a salt.

Key:
Histamine H1 receptor = target: T1, Histamine H1 receptor (Rattus norvegicus, UniProt P31390); test: H1-receptor binding assay (rat brain membranes, [3H]pyrilamine); conditions: for Ki: Cheng-Prusoff from IC50, HCl salt, read-out: H1 Ave Ki; for inhibition at 1 µg/mL: concentration not given (top test concentration 1 μg/ml), HCl salt
T1 construct: The tissue source was male Sprague-Dawley rat brain; tissue Rockland Corporation, Gilbertsville, Pa; host or cells: male Sprague-Dawley rat brain membranes
T1 sequence (P31390 whole entry): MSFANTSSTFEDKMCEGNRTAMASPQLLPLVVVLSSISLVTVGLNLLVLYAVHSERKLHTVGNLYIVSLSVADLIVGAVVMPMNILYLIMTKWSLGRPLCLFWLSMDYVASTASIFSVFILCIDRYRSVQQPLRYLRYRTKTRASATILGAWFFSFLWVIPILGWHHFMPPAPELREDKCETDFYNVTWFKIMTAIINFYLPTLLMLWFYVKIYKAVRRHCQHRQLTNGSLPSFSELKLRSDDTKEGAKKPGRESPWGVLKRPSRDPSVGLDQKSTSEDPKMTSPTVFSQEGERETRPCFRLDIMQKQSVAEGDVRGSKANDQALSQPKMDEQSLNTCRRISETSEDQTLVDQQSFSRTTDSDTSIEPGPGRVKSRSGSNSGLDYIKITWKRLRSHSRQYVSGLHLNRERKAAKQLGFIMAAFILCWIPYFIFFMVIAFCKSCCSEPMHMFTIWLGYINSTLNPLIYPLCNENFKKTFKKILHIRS
Source text: General Procedure for H1-Receptor Binding Assay
The procedure used was based on that disclosed in V.T. Tran et al, “Histamine H1 receptors identified in mammalian brain membranes with [H-3]mepyramine”, Proc. Natl. Acad. Sci. U.S.A. 75 (1978) 6290-6294.
I. Tissue Preparation Protocol for Histamine H1 Receptor Binding Assay:
1. The tissue source was male Sprague-Dawley rat brain. These were purchased, stripped and frozen (available from Rockland Corporation, Gilbertsville, Pa.). The buffer used was ice-cold 50 mM Tris-HCl, pH 7.5. (The pH was determined at 25° C.)
2. The brains were spread out on plastic wrap on the benchtop and allowed to thaw for 10-15 min. After this, everything was kept ice-cold.
3. Two brains were put in each 50 ml round bottom centrifuge tube and 25 ml of buffer was added. Then they were broken up with a Polytron (from Brinkmann Instruments, Westbury, N.Y.) equipped with a PT-10 tip at setting 6 for 30 sec.
4. The volume in the tube was brought up to 45 ml and mixed and the particulate material was centrifuged at 1000×g (3000 rpm, SS-34 rotor) for 10 min to remove nuclei and unbroken cells.
5. Pellets were discarded and the supernatants were centrifuged 10 min at 50,000×g (20,000 rpm, SS-34 rotor).
6. The high-speed pellets were resuspended in a volume of Tris buffer equal to the original ([…]), the contents of all tubes were pooled, and a sample was taken for BCA protein assay. The material was aliquotted, 45 ml per round-bottom tube, and the resuspension was recentrifuged. The yield of protein was approximately 20 mg/brain, so there was about 40 mg of protein per tube.
7. Pellets were frozen at −80° C.
1. FDCL and comparative compounds for assay were independently solubilized at 1mg/ml DMSO by vortexing, or if necessary by sonication. The first dilution, 100-fold, was made in 50 mM Tris-HCl, pH 7.5, at room temperature. The three or four subsequent ten-fold serial dilutions were made in 1% DMSO/50 mM Tris-HCl, pH 7.5. Drug solutions and assay plates were kept at room temperature during the course of the assay set up.
2. Test compounds were assayed at four or five concentrations: 1, 0.1, 0.01, 0.001, and 0.0001 μg/ml. Twenty μl of drug solution was pipeted into each of three wells.
3. [^3H]Pyrilamine was diluted approximately 2000-fold with ice-cold […] Tris-HCl, pH 7.5 (to a working concentration of 20-25 nM), and put on ice.
4. A frozen tissue pellet was thawed in a 25° C. water bath, resuspended in 50 mM Tris-HCl, pH 7.5, at 1.7-2 mg/ml by brief break-up on the Polytron, and put on ice.
5. Twenty μl of diluted [^3H]pyrilamine was added to each well.
6. One hundred fifty μl of tissue suspension was added to each well.
7. The top of the plate was covered and it was placed in a 25° C. shaking water bath (about 60 oscillations/min) for 30 min.
8. Samples were filtered on a Tomtec Mach 2 harvester (available from Tomtec Corporation, Orange, Conn.) through a GF/B filter mat (from Wallac, Inc., Gaithersburg, Md.) presoaked in 0.3% polyethylenimine. Each sample was thrice washed with ice-cold 50 mM Tris-HCl, pH 7.5 dried 20 sec on the Tomtec, and dried 3-4 min in a microwave oven on a paper towel. The filter was impregnated with MELTILEX brand wax scintillant (from Wallac Corporation) and counted on a Betaplate scintillation counter (from Wallac Corporation).
9. Specific binding was determined as the difference between total and nonspecific binding. The percent inhibition in the presence of inhibitor or standard was determined using the formula: [1-(sample binding-nonspecific binding)/specific binding]×100 For compounds that inhibit more than 50% at 1 μg/ml, an IC50 value was interpolated from proximate concentrations. […]

H3 receptors = target: T2, H3 receptors (Cavia porcellus, UniProt Q9JI35); test: H3-receptor binding assay (guinea pig brain membranes, [3H]R-α-methyl histamine or [3H]Nα-methyl histamine); conditions: for Ki: HCl salt of the indicated compound, read-out: H3 Ave Ki; for inhibition at 2 µg/mL: final concentration 2 μg/ml, HCl salt
T2 construct: The source of the H3 receptors in this experiment was guinea pig brain; from tissue; host or cells: guinea pig brain membranes
T2 sequence (Q9JI35 whole entry): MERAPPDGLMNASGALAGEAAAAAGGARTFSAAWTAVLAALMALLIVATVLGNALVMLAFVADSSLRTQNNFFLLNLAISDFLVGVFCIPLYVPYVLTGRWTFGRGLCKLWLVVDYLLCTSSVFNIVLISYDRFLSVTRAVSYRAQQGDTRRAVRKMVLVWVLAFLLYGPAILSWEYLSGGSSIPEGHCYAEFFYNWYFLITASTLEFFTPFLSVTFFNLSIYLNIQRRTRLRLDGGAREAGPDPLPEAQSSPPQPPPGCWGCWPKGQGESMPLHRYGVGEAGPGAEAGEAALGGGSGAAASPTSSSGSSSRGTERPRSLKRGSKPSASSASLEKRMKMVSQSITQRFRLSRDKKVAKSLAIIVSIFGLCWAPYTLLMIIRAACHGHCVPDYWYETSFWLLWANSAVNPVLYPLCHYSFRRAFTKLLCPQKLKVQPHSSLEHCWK
Experimental: General Procedure for H3-Receptor Binding Assay
The source of the H3 receptors in this experiment was guinea pig brain. The animals weighed 400-600 g. The brain tissue was homogenized with a solution of 50 mM Tris, pH 7.5. The final concentration of tissue in the homogenization buffer was 10% w/v. The homogenates were centrifuged at 1,000×g for 10 min. in order to remove clumps of tissue and debris. The resulting supernatants were then centrifuged at 50,000×g for 20 min. in order to sediment the membranes, which were next washed three times in homogenization buffer (50,000×g for 20 min. each). The membranes were frozen and stored at −70° C. until needed.
All compounds to be tested were dissolved in DMSO and then diluted into the binding buffer (50 mM Tris, pH 7.5) such that the final concentration was 2 μg/ml with 0.1% DMSO. Membranes were then added (400 μg of protein) to the reaction tubes. The reaction was started by the addition of 3 nM [^3H]R-α-methyl histamine (8.8 Ci/mmol) or 3 nM [^3H]N^α-methyl histamine (80 Ci/mmol) and continued under incubation at 30° C. for 30 min. Bound ligand was separated from unbound ligand by filtration, and the amount of radioactive ligand bound to the membranes was quantitated by liquid scintillation spectrometry. All incubations were performed in duplicate and the standard error was always less than 10%. Compounds that inhibited more than 70% of the specific binding of radioactive ligand to the receptor were serially diluted to determine a Ki (nM). The results are given in the Table 1 for the HCl salt of the indicated compound.

## Clc1ccc2c(c1)CCc1cccnc1C2=C1CCN(Cc2c[nH]cn2)CC1
Histamine H1 receptor
  Ki: 16 nM
H3 receptors
  Ki: 660 nM

## Clc1ccc2c(c1)CCc1cccnc1C2N1CCN(CCc2c[nH]cn2)CC1 (centres unmarked)
Histamine H1 receptor
  Ki: 5.6 nM
H3 receptors
  inhibition at 2 µg/mL: 53%

## O=C(CCc1c[nH]cn1)N1CCC(=C2c3ccc(Cl)cc3CCc3cccnc32)CC1
H3 receptors
  inhibition at 2 µg/mL: 47%

## Clc1ccc2c(c1)CCc1cccnc1C2=C1CCN(CCCc2c[nH]cn2)CC1
Histamine H1 receptor
  Ki: 4.1 nM
H3 receptors
  Ki: 260 nM

## Cn1cnc(CN2CCN(C3c4ccc(Cl)cc4CCc4cccnc43)CC2)c1 (centres unmarked)
Histamine H1 receptor
  Ki: 24 nM
  inhibition at 1 µg/mL: 84%
H3 receptors
  inhibition at 2 µg/mL: 5%

## O=C(c1c[nH]cn1)N1CCN(C2c3ccc(Cl)cc3CCc3cccnc32)CC1 (centres unmarked)
Histamine H1 receptor
  Ki: 300 nM
  inhibition at 1 µg/mL: 42%
H3 receptors
  inhibition at 2 µg/mL: 18%

## Clc1ccc2c(c1)CCc1cccnc1C2N1CCN(CCCCc2c[nH]cn2)CC1 (centres unmarked)
Histamine H1 receptor
  Ki: 31.5 nM
H3 receptors
  Ki: 68.5 nM

## Clc1ccc2c(c1)CCc1cccnc1C2=C1CCN(CCCCc2c[nH]cn2)CC1
Histamine H1 receptor
  Ki: 10.5 nM
H3 receptors
  Ki: 25.2 nM

## O=C(CCc1c[nH]cn1)N1CCN(C2c3ccc(Cl)cc3CCc3cccnc32)CC1 (centres unmarked)
Histamine H1 receptor
  Ki: 200 nM
H3 receptors
  inhibition at 2 µg/mL: 44%

## Clc1ccc2c(c1)CCc1cccnc1C2N1CCN(CCCc2c[nH]cn2)CC1 (centres unmarked)
Histamine H1 receptor
  Ki: 7.5 nM
H3 receptors
  Ki: 173 nM

## Clc1ccc2c(c1)CCc1cccnc1C2C1CCN(CCCCc2c[nH]cn2)CC1 (centres unmarked)
Histamine H1 receptor
  Ki: 14.3 nM
H3 receptors
  Ki: 42 nM

## Clc1ccc2c(c1)CCc1cccnc1C2N1CCN(CCCCCc2c[nH]cn2)CC1 (centres unmarked)
Histamine H1 receptor
  Ki: 12.5 nM
H3 receptors
  Ki: 32 nM

## Clc1ccc2c(c1)CCc1cccnc1C2C1CCN(CCCCCc2c[nH]cn2)CC1 (centres unmarked)
Histamine H1 receptor
  Ki: 7 nM
H3 receptors
  Ki: 22.5 nM

## Clc1ccc2c(c1)CCc1cccnc1C2=C1CCN(CCCCCc2c[nH]cn2)CC1
Histamine H1 receptor
  Ki: 2.5 nM
H3 receptors
  Ki: 26.5 nM

## Clc1ccc2c(c1)CCc1cccnc1C2N1CCN(CCCCCCc2c[nH]cn2)CC1 (centres unmarked)
Histamine H1 receptor
  Ki: 8 nM
H3 receptors
  Ki: 41 nM

## Clc1ccc2c(c1)CCc1cccnc1C2C1CCN(CCCCCCc2c[nH]cn2)CC1 (centres unmarked)
Histamine H1 receptor
  Ki: 5.5 nM
H3 receptors
  Ki: 27.5 nM

## Clc1ccc2c(c1)CCc1cccnc1C2=C1CCN(CCCCCCc2c[nH]cn2)CC1
Histamine H1 receptor
  Ki: 12 nM
H3 receptors
  Ki: 33.5 nM

## O=C(OCCCCc1c[nH]cn1)N1CCN(C2c3ccc(Cl)cc3CCc3cccnc32)CC1 (centres unmarked)
Histamine H1 receptor
  inhibition at 1 µg/mL: 36%
H3 receptors
  Ki: 148 nM

## O=C(NCCCCc1c[nH]cn1)N1CCN(C2c3ccc(Cl)cc3CCc3cccnc32)CC1 (centres unmarked)
Histamine H1 receptor
  Ki: 250 nM
H3 receptors
  Ki: 47 nM

## Clc1ccc2c(c1)CCc1cccnc1C2N1CCN(CCCCc2c[nH]cn2)CC1 (centres unmarked) (as salt: HCl) [Example 12, 8-Chloro-6,11-dihydro-11-[4-[4-(1H-imidazol4-yl)butyl]-1-piperazinyl]-5H-benzo[5,6]cyclohepta[1,2-b]pyridine]
other
  melting point: 165 to 170 °C (dec.)

## Clc1ccc2c(c1)CCc1cccnc1C2=C1CCN(CCCCCCc2c[nH]cn2)CC1 (as salt: hydrochloride) (hydrate or solvate) [Example 14, 8-Chloro-6,11-dihydro-11-[1-[6-(1H-imidazol-4-yl)hexyl]-4-piperidinylidene]-5H-benzo[5,6]cyclohepta[1,2-b]pyridine]
other
  melting point: 162 to 165 °C (dec.)

## Clc1ccc2c(c1)CCc1cccnc1C2C1CCN(CCCCCc2c[nH]cn2)CC1 (centres unmarked) (as salt: hydrochloride) [Example 13, 8-chloro-6,11-dihydro-11-[1-[5-(1H-imidazol-4-yl)pentyl]-4-piperidinyl]-5H-benzo[5,6]cyclohepta[1,2-b]pyridine]
other
  melting point: 164 to 170 °C (dec.)

## Clc1ccc2c(c1)CCc1cccnc1C2N1CCN(Cc2c[nH]cn2)CC1 (racemic) (as salt: HCl) (hydrate or solvate) [1-(8-Chloro-6,11-dihydro-5H-benzo[5,6]cyclohepta[1,2-b]pyridin-11-yl)-4-[(1H-imidazol-4-yl)-methyl]-piperazine]
other
  melting point: 190.5 to 192 °C (dec.)

## Clc1ccc2c(c1)CCc1cccnc1C2N1CCN(Cc2c[nH]cn2)CC1 (racemic) [1-(8-Chloro-6,11-dihydro-5H-benzo[5,6]cyclohepta[1,2-b]pyridin-11-yl)-4-[(1H-imidazol-4-yl)-methyl]-piperazine]
Histamine H1 receptor
  Ki: 36.8 nM
H3 receptors
  Ki: 150 nM

## Clc1ccc2c(c1)CCc1cccnc1C2C1CCN(Cc2c[nH]cn2)CC1 (single isomer, unassigned) [drawing 60]
Histamine H1 receptor
  Ki: 1.2 nM
H3 receptors
  inhibition at 2 µg/mL: 15%

## Clc1ccc2c(c1)CCc1cccnc1C2C1CCN(Cc2c[nH]cn2)CC1 (single isomer, unassigned) [drawing 61]
Histamine H1 receptor
  Ki: 182 nM
H3 receptors
  Ki: 91 nM

## Clc1ccc2c(c1)CCc1cccnc1C2N1CCN(Cc2c[nH]cn2)CC1 (single isomer, unassigned; (+)) [(+)-(8-Chloro-6,11-dihydro-5H-benzo[5,6]cyclohepta[1,2-b]pyridin-11-yl)-4-[(1H-imidazol-4-yl)methyl]-piperazine]
Histamine H1 receptor
  Ki: 4.6 nM
H3 receptors
  Ki: 121 nM

## Clc1ccc2c(c1)CCc1cccnc1C2N1CCN(Cc2c[nH]cn2)CC1 (single isomer, unassigned; (-)) [(−)-(8-Chloro-6,11-dihydro-5H-benzo[5,6]cyclohepta[1,2-b]pyridin-11-yl)-4-[(1H-imidazol-4-yl)methyl]-piperazine]
Histamine H1 receptor
  Ki: 15.4 nM
H3 receptors
  Ki: 133 nM
